Key:
Assay in all cases: relative viability (nuclei count vs DMSO), 5 days (fraction); higher = more cells survive
[1] = tested on: NCI-H650
Outline: (§1)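 Dosing by pin tool came one day after lung cancer cell lines were seeded in 1536-well plates, using either one drug or a fixed anchor-drug dose plus five library-drug doses (not always all listed) in √10 steps. After 5 days, nuclei were counted on 4× images. Relative viability is treated-well nuclei count divided by vehicle-well nuclei count, and values are medians of duplicate plates.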

[2] = tested on: LOU-NH91
Outline: as §1

[3] = tested on: NCI-H3122
Outline: as §1

[4] = tested on: NCI-H596
Outline: as §1

[5] = tested on: NCI-H1993
Outline: as §1

[6] = tested on: NCI-H441
Outline: as §1

[7] = tested on: HARA
Outline: as §1

[8] = tested on: EMC-BAC-2
Outline: as §1

[9] = tested on: 201T
Outline: as §1

[10] = tested on: NCI-H1666
Outline: as §1

[11] = tested on: NCI-H2347
Outline: as §1

Compound: CC1(C)CCC(c2ccc(Cl)cc2)=C(CN2CCN(c3ccc(C(=O)NS(=O)(=O)c4ccc(N[C@H](CCN5CCOCC5)CSc5ccccc5)c(S(=O)(=O)C(F)(F)F)c4)cc3)CC2)C1 [Navitoclax] + NC(=O)Nc1cc(-c2cccc(F)c2)sc1C(=O)N[C@H]1CCCNC1 [AZD7762] (partner 0.2 µM)
- relative viability ([1]; first compound 0.005 µM): 0.946
- relative viability ([1]; first compound 0.01581 µM): 1.12
- relative viability ([1]; first compound 0.05 µM): 1.13
- relative viability ([1]; first compound 0.1581 µM): 0.801
- relative viability ([1]; first compound 0.5 µM): 0.937
- relative viability ([2]; first compound 0.005 µM): 0.746
- relative viability ([2]; first compound 0.01581 µM): 0.792
- relative viability ([2]; first compound 0.05 µM): 0.656
- relative viability ([2]; first compound 0.1581 µM): 0.535
- relative viability ([2]; first compound 0.5 µM): 0.306
- relative viability ([3]; first compound 0.005 µM): 0.982
- relative viability ([3]; first compound 0.01581 µM): 0.971
- relative viability ([3]; first compound 0.05 µM): 0.895
- relative viability ([3]; first compound 0.1581 µM): 0.973
- relative viability ([3]; first compound 0.5 µM): 0.985
- relative viability ([4]; first compound 0.005 µM): 1.32
- relative viability ([4]; first compound 0.01581 µM): 1.26
- relative viability ([4]; first compound 0.05 µM): 0.919
- relative viability ([4]; first compound 0.1581 µM): 1.05
- relative viability ([4]; first compound 0.5 µM): 1.05
- relative viability ([5]; first compound 0.005 µM): 0.738
- relative viability ([5]; first compound 0.01581 µM): 1.05
- relative viability ([5]; first compound 0.05 µM): 0.552
- relative viability ([5]; first compound 0.1581 µM): 0.721
- relative viability ([5]; first compound 0.5 µM): 0.641
- relative viability ([6]; first compound 0.005 µM): 1.12
- relative viability ([6]; first compound 0.01581 µM): 1.19
- relative viability ([6]; first compound 0.05 µM): 1.22
- relative viability ([6]; first compound 0.1581 µM): 1.04
- relative viability ([6]; first compound 0.5 µM): 1.24
- relative viability ([7]; first compound 0.005 µM): 0.385
- relative viability ([7]; first compound 0.01581 µM): 0.444
- relative viability ([7]; first compound 0.05 µM): 0.212
- relative viability ([7]; first compound 0.1581 µM): 0.228
- relative viability ([7]; first compound 0.5 µM): 0.32
- relative viability ([8]; first compound 0.005 µM): 1.03
- relative viability ([8]; first compound 0.01581 µM): 1.26
- relative viability ([8]; first compound 0.05 µM): 1.07
- relative viability ([8]; first compound 0.1581 µM): 1.09
- relative viability ([8]; first compound 0.5 µM): 1.13
- relative viability ([9]; first compound 0.005 µM): 0.656
- relative viability ([9]; first compound 0.01581 µM): 0.656
- relative viability ([9]; first compound 0.05 µM): 0.41
- relative viability ([9]; first compound 0.1581 µM): 0.565
- relative viability ([9]; first compound 0.5 µM): 0.504
- relative viability ([10]; first compound 0.005 µM): 0.934
- relative viability ([10]; first compound 0.01581 µM): 0.883
- relative viability ([10]; first compound 0.05 µM): 0.738
- relative viability ([10]; first compound 0.1581 µM): 0.861
- relative viability ([10]; first compound 0.5 µM): 0.882
- relative viability ([11]; first compound 0.005 µM): 0.809
- relative viability ([11]; first compound 0.01581 µM): 0.594

— the supplement of paper PMC10307832
